Values of other authors, collected in article PMC7604311, “Caprine Bactenecins as Promising Tools for Developing New Antimicrobial and Antitumor Drugs” (Frontiers in Cellular and Infection Microbiology, 2020).

Legend:
Design in all cases: key to Susceptibility category: R – resistant; I – intermediate; S – susceptible
Conditions in all cases: initial susceptibility testing of the clinical isolate; ref supplying institutions; cited from earlier work
[1] = system: E. coli ESBL 521/17
[2] = system: A. baumannii 7226/16
Description: page 1: Supplementary Material Supplementary Table 1. Susceptibility profiles of tested clinical isolates of bacteria. Gram-negative: Gram-positive: antibiotic E. coli A. baumannii P. aeruginosa K. pneumoniae antibiotic S. aureus ESBL 521/17 7226/16 MDR 522/17 ESBL 344/17 1399/17 AMP* R [≥32] R [≥32 ] R [≥32 ] R [≥32] AMP* R [≥32 ] AMC R [16] - - S [≤2] AMC - CTX R [≥64] - - S [≤1] AMX - CAZ R [≥64] - R [≥64] S [≤1] AZM R [≥4] FEP R [≥64] - R [≥64] S [≤1] VAN S [≤2] ATM R [≥64] - - S [≤1] DOX I [2] IPM S [≤1] R [≥16] I [8] S [≤1] CLI I [2] MEM S [≤0.25 ] R [≥32 ] R [≥16] S [≤0.25] MEM I [4] AM ...

[3] = system: P. aeruginosa MDR 522/17
[4] = system: K. pneumoniae ESBL 344/17;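 also: each antibiotic is scored as S (susceptible), I (intermediate) or R (resistant), with its MIC listed alongside, in a susceptibility profile of the clinical isolate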
[5] = system: S. aureus 1399/17

SMILES	MIC of antibiotic [1]	Susceptibility category [1]	MIC of antibiotic [2]	Susceptibility category [2]	MIC of antibiotic [3]	Susceptibility category [3]	MIC of antibiotic [4]	Susceptibility category [4]	MIC of antibiotic [5]	Susceptibility category [5]
CNC(C)C1CCC(N)C(OC2C(N)CC(N)C(OC3OCC(C)(O)C(NC)C3O)C2O)O1 (centres unmarked) [GEN, gentamicin]	≤ 1 µg/mL	S	≥ 16 µg/mL	R	≥ 16 µg/mL	R	≤ 1 µg/mL	S	≥ 32 µg/mL	R
CC[C@H]1OC(=O)[C@H](C)[C@@H](O[C@H]2C[C@@](C)(OC)[C@@H](O)[C@H](C)O2)[C@H](C)[C@@H](O[C@@H]2O[C@H](C)C[C@H](N(C)C)[C@H]2O)[C@](C)(O)C[C@@H](C)C(=O)[C@H](C)[C@@H](O)[C@]1(C)O [ERY, erythromycin]	≥ 32 µg/mL	R	≥ 32 µg/mL	R	≥ 32 µg/mL	R	≥ 32 µg/mL	R	≥ 32 µg/mL	R
